ChEMBL document CHEMBL1201862, “PubChem BioAssay data set” (2004)
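Tested at 5 concentrations; 48 h exposure; 96-well plates; endpoints linearly interpolated, else capped at highest concentration. GI50 marks 50% less growth.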 The source made the active and inactive calls. No stated cut-off is given here; in the data, active = GI50 up to about 1.1 µM and inactive = higher.

Assays:
Test in all cases: NCI anticancer screen, dose series, 48 h
OVCAR-8 = tested on: OVCAR-8
MDA-N = tested on: MDA-N
ACHN = tested on: ACHN
MOLT-4 = tested on: MOLT-4
SF-539 = tested on: SF-539
SK-OV-3 = tested on: SK-OV-3
COLO 205 = tested on: COLO 205
U-251 = tested on: U-251
SK-MEL-28 = tested on: SK-MEL-28
MDA-MB-231 = tested on: MDA-MB-231
KM12 = tested on: KM12
RPMI-8226 = tested on: RPMI-8226
NCI-H23 = tested on: NCI-H23
K562 = tested on: K562
OVCAR-4 = tested on: OVCAR-4
A498 = tested on: A498
MDA-MB-435 = tested on: MDA-MB-435
786-0 = tested on: 786-0
SNB-19 = tested on: SNB-19
DU-145 = tested on: DU-145

Compound: Cc1ccc(S(=O)(=O)n2cc(-c3cnc(N)c(Br)n3)c3ccccc32)cc1
- GI50 (OVCAR-8): 4060 nM (inactive)
- GI50 (MDA-N): 246 nM (active)
- GI50 (ACHN): 5460 nM (inactive)
- GI50 (MOLT-4): 977 nM (active)
- GI50 (SF-539): 1150 nM (inactive)
- GI50 (SK-OV-3): 4260 nM (inactive)
- GI50 (COLO 205): 2460 nM (inactive)
- GI50 (U-251): 902 nM (active)
- GI50 (SK-MEL-28): 6270 nM (inactive)
- GI50 (MDA-MB-231): 2540 nM (inactive)
- GI50 (KM12): 1360 nM (inactive)
- GI50 (RPMI-8226): 1780 nM (inactive)
- GI50 (NCI-H23): 1560 nM (inactive)
- GI50 (K562): 841 nM (active)
- GI50 (OVCAR-4): 5180 nM (inactive)
- GI50 (A498): 2680 nM (inactive)
- GI50 (MDA-MB-435): 238 nM (active)
- GI50 (786-0): 2330 nM (inactive)
- GI50 (SNB-19): 1010 nM (active)
- GI50 (DU-145): 1310 nM (inactive)

Compound: CC(=O)O[C@@H]1C[C@@]2(C)[C@@H]3CC=C4[C@@H](C[C@H](O)C(=O)C4(C)C)[C@]3(C)C(=O)C[C@]2(C)[C@H]1[C@@](C)(O)C(=O)/C=C/C(C)(C)OC(C)=O
- GI50 (OVCAR-8): 1470 nM (inactive)
- GI50 (MDA-N): 1370 nM (inactive)
- GI50 (ACHN): 160 nM (active)
- GI50 (MOLT-4): 3330 nM (inactive)
- GI50 (SF-539): 1250 nM (inactive)
- GI50 (SK-OV-3): < 25.1 nM (active)
- GI50 (COLO 205): 1500 nM (inactive)
- GI50 (U-251): 617 nM (active)
- GI50 (SK-MEL-28): 365 nM (active)
- GI50 (MDA-MB-231): 2780 nM (inactive)
- GI50 (KM12): 4840 nM (inactive)
- GI50 (RPMI-8226): 2020 nM (inactive)
- GI50 (NCI-H23): 5260 nM (inactive)
- GI50 (K562): 1510 nM (inactive)
- GI50 (OVCAR-4): 789 nM (active)
- GI50 (A498): 15.1 nM (active)
- GI50 (MDA-MB-435): 1010 nM (active)
- GI50 (786-0): 352 nM (active)
- GI50 (SNB-19): 3210 nM (inactive)
- GI50 (DU-145): 2030 nM (inactive)

Compound: COC(=O)[C@]12CC[C@H]3CN(C(=O)OCc4ccccc4)[C@H]([C@H]31)[C@H](C(=O)OCC[Si](C)(C)C)N2S(=O)(=O)c1ccc(C)cc1
- GI50 (OVCAR-8): > 100000 nM (inactive)
- GI50 (MDA-N): 74000 nM (inactive)
- GI50 (ACHN): 54700 nM (inactive)
- GI50 (MOLT-4): 19500 nM (inactive)
- GI50 (SF-539): > 100000 nM (inactive)
- GI50 (SK-OV-3): > 100000 nM (inactive)
- GI50 (COLO 205): 17500 nM (inactive)
- GI50 (U-251): > 100000 nM (inactive)
- GI50 (SK-MEL-28): > 100000 nM (inactive)
- GI50 (MDA-MB-231): 8130 nM (inactive)
- GI50 (KM12): 97300 nM (inactive)
- GI50 (RPMI-8226): 8450 nM (inactive)
- GI50 (NCI-H23): > 100000 nM (inactive)
- GI50 (K562): 15300 nM (inactive)
- GI50 (OVCAR-4): 11400 nM (inactive)
- GI50 (A498): 16700 nM (inactive)
- GI50 (MDA-MB-435): > 100000 nM (inactive)
- GI50 (786-0): > 100000 nM (inactive)
- GI50 (SNB-19): > 100000 nM (inactive)
- GI50 (DU-145): > 100000 nM (inactive)
